Experiments:
[1] = test system: mucous membrane of nasal passages, formalin-induced acute rhinosinusitis; experiment: Acute rhinosinusitis rat model (induced by intranasal 7.5% formalin solution); format: in vivo, Wistar rats; settings: rats; for The number of caliciform cells within 1 mm of the mucous membrane of the nasal septum: tested compounds 27 mg/kg for 7 days after induction, M ± m; for Macroscopic changes in the mucous membrane of nasal passages: Muculent or mucopurulent catarrh (number of animals) / Macroscopic changes in the mucous membrane of nasal passages: Without changes (number of animals): tested compounds 27 mg/kg for 7 days, count out of n of the group
Experimental: Morphological studies of histologic preparations were conducted with a Leica DMLS light-optical microscope (Leica Microsystems, Germany). Micro-morphometric assessment was performed by using an ocular micrometer on a Leica DMLB microscope.
Acute rhinosinusitis was induced by intranasal administration of 20 μl of 7.5% formalin solution (aqueous solution comprising 40% formaldehyde, 8% methyl alcohol, and 52% water) to each nasal passage of rats.
Administration of formalin to rat nasal passages leads to the dissemination of inflammation to adjacent tissues, resulting in a clinical pattern similar to the symptoms of rhinosinusitis in a human.
After an acclimatization period, the following groups were formed: • intact animals administered intragastrically a saline solution in an amount of 0.2 ml, the induction of acute rhinosinusitis was not performed; • a control group consisted of the animals administered intragastrically a saline solution in an amount of 0.2 ml for 7 days after induction of acute rhinosinusitis; • animals administered intramuscularly dexamethasone at a dose of 0.33 mg/kg for 7 days after induction of acute rhinosinusitis; and • animals administered the tested compounds at a dose of 27 mg/kg for 7 days after induction of acute rhinosinusitis.
Clinical observation of each animal was performed every day at least twice daily.
In the experiment with Wistar rats, the induction of acute rhinosinusitis by administration of a 7.5% formalin solution to nasal passages caused in the control group of animals pronounced pathological changes characterizing the development of an acute inflammation process in the nasal mucous. The caused pathology was characterized by congestion, hyperplasia, focal necrosis of the nasal meatus mucous membrane, an increased number of caliciform cells, pronounced infiltration by mononuclear cells and leucocytes, and mucus hyperproduction by submucosal glands.
The mucous and submucous membranes of both nasal passages (respiratory and olfactory regions) of the experimental animals were subjected to a morphological analysis to evaluate a specific activity of the compounds.
For microscopic examination, the sections were stained with hematoxylin and eosin. Detection of acid mukopolysaccharides, the production of which is increased in an inflammation, was performed by histochemical staining of the preparation with Alcian Blue (pH 2.5). The comparison and histological evaluation of changes were performed versus the group of intact rats.
After slaughter, the gross appearance of inflammation in the nasal passages was studied in each animal. Histological, hystochemical and morphological studies of rats were intended to evaluate the following characteristics of nasal passages: congestion of the mucous membrane; hyperplasia and necrosis of nasal epithelium, the number of caliciform cells within 1 mm of the mucous membrane of the nasal septum, and the character of inflammation.
In this study, the efficiency of the mucociliary system was evaluated by the number of caliciform cells and, as a consequence, microscopic changes in the mucous membrane of the nasal passages.

[2] = test system: hRV strain (GKV reg. No. 2730); experiment: Antiviral activity against rhinovirus in mice (body weight, lung weight, infectious titer in lungs); format: in vivo; settings: for Body weight of the mice after infection with hRV, day 0: 30 mg/kg orally once daily for 5 days starting 12 hours after infection; for Body weight of the mice after infection with hRV, day 1 / Body weight of the mice after infection with hRV, day 2 / Lung weight of the mice after infection with hRV, day 2 / Body weight of the mice after infection with hRV, day 3 / Lung weight of the mice after infection with hRV, day 3 / Body weight of the mice after infection with hRV, day 4 / Lung weight of the mice after infection with hRV, day 4: 30 mg/kg orally once daily; for Body weight of the mice after infection with hRV, day 1: day 1 after infection; for Body weight of the mice after infection with hRV, day 2 / Lung weight of the mice after infection with hRV, day 2: day 2 after infection; for Body weight of the mice after infection with hRV, day 3 / Lung weight of the mice after infection with hRV, day 3: day 3 after infection; for Body weight of the mice after infection with hRV, day 4 / Lung weight of the mice after infection with hRV, day 4: day 4 after infection; for Suppression of the reproduction of the virus in mouse lungs, Δ lg, Day 2 after infection / Suppression of the reproduction of the virus in mouse lungs, Δ lg, Day 3 after infection / Suppression of the reproduction of the virus in mouse lungs, Δ lg, Day 4 after infection / Infectious titer of the virus in lungs, lg TCID50, Day 2 after infection / Infectious titer of the virus in lungs, lg TCID50, Day 3 after infection / Infectious titer of the virus in lungs, lg TCID50, Day 4 after infection: 30 mg/kg orally; for Suppression of the reproduction of the virus in mouse lungs, Δ lg, Day 2 after infection / Suppression of the reproduction of the virus in mouse lungs, Δ lg, Day 3 after infection / Suppression of the reproduction of the virus in mouse lungs, Δ lg, Day 4 after infection: difference control minus experimental group; for Infectious titer of the virus in lungs, lg TCID50, Day 2 after infection / Infectious titer of the virus in lungs, lg TCID50, Day 3 after infection / Infectious titer of the virus in lungs, lg TCID50, Day 4 after infection: lung suspension titrated in Hela cell culture
[3] = test system: human respiratory syncytial virus (strain A2, ATCC VR-1540); format: in vivo; settings: Balb/c mice, cyclophosphan 100 mg/kg 5 days before infection; 30 mg/kg once daily for 5 days from 24 h; score from possible 4; M ± SD, n = 5
[4] = test system: influenza virus strain A/California/07/09 (H1N1) pdm09; experiment: animal or person; format: in vivo, white outbred female mice; settings: unidentified influenza virus, H1N1, in Mus musculus, po, 336 h, read-out: Mortality rate, %
[5] = test system: Coxsackie A2-virus (strain HCXV A2); experiment: Antiviral activity against Coxsackie virus in vivo (mortality of infected mice); design: species or system white mice; settings: mice; for inhibition in vivo at 30 mg/kg / mortality at 30 mg/kg: Mus musculus, po; for inhibition in vivo at 30 mg/kg: 168 h, read-out: Protective index (%); for inhibition in vivo at 30 mg/kg / Average expectancy life (days), Relative / Average expectancy life (days), Vs. control: 10LD50 HCXV A2, 30 mg/kg orally once daily for 7 days; for mortality at 30 mg/kg: 360 h, 10LD50 HCXV A2 i.m., 30 mg/kg orally once daily for 7 days from 24 h after infection, 15 days monitoring, read-out: Total mortality rate, %; for Average expectancy life (days), Vs. control: difference to virus control

With O=C1CCCC(=O)N1CCc1cnc[nH]1 [Compound 1, 1-(2-(1H-imidazol-4-yl)ethyl)piperidine-2,6-dione] the “The number of caliciform cells within 1 mm of the mucous membrane of the nasal septum” value (“The number” for short) [1] was 31.2 ± 1.2, the “Macroscopic changes in the mucous membrane of nasal passages: Muculent or mucopurulent catarrh (number of animals)” value [1] was 13 and the “Macroscopic changes in the mucous membrane of nasal passages: Without changes (number of animals)” value [1] was 5. The “Body weight of the mice after infection with hRV, day 0” value [2] was 7.36 ± 0.97, the “Body weight of the mice after infection with hRV, day 1” value [2] was 8.2 ± 4.25 and the “Body weight of the mice after infection with hRV, day 2” value [2] was 13.03 ± 3.51. For the same compound, the “Lung weight of the mice after infection with hRV, day 2” value [2] was 136.9 ± 5.93, the “Body weight of the mice after infection with hRV, day 3” value [2] was 13.47 ± 1.36 and the “Lung weight of the mice after infection with hRV, day 3” value [2] was 140.8 ± 5.14. For the same compound, the “Body weight of the mice after infection with hRV, day 4” value [2] was 13.99 ± 1.53, the “Lung weight of the mice after infection with hRV, day 4” value [2] was 128.2 ± 5.81 and the “Suppression of the reproduction of the virus in mouse lungs, Δ lg, Day 2 after infection” value [2] was 1.1 ± 0.49 Δ lg. The “Suppression of the reproduction of the virus in mouse lungs, Δ lg, Day 3 after infection” value [2] was 1.7 ± 0.31 Δ lg, the “Suppression of the reproduction of the virus in mouse lungs, Δ lg, Day 4 after infection” value [2] was 2.18 ± 0.08 Δ lg and the “Infectious titer of the virus in lungs, lg TCID50, Day 2 after infection” value [2] was 2.9 ± 0.49 lg TCID50. For the same compound, the “Infectious titer of the virus in lungs, lg TCID50, Day 3 after infection” value [2] was 0.8 ± 0.31 lg TCID50, the “Infectious titer of the virus in lungs, lg TCID50, Day 4 after infection” value [2] was 0.03 ± 0.08 lg TCID50 and the “Degree of pulmonary edema on day 5 after infection, score” value (“Degree of pulmonary edema” for short) [3] was 1.3 ± 0.27 score. It also gave a mortality at 30 mg/kg [4] of 35%.

With CC1(C)CC(=O)N(CCc2cnc[nH]2)C(=O)C1 [Compound 3] the “The number” value [1] was 35.8 ± 0.9, the “Macroscopic changes in the mucous membrane of nasal passages: Muculent or mucopurulent catarrh (number of animals)” value [1] was 7 and the “Macroscopic changes in the mucous membrane of nasal passages: Without changes (number of animals)” value [1] was 5. For the same compound, the “Degree of pulmonary edema” value [3] was 1.6 ± 0.89 score.

With O=C1CCCC(=O)N1CCC1CCCN1 (stereo not drawn) [Compound 4] the “Body weight of the mice after infection with hRV, day 0” value [2] was 7.77 ± 1.02, the “Body weight of the mice after infection with hRV, day 1” value [2] was 7.27 ± 1.27 and the “Body weight of the mice after infection with hRV, day 2” value [2] was 12.66 ± 2.32. For the same compound, the “Lung weight of the mice after infection with hRV, day 2” value [2] was 142 ± 4.81, the “Body weight of the mice after infection with hRV, day 3” value [2] was 13.14 ± 1.5 and the “Lung weight of the mice after infection with hRV, day 3” value [2] was 135.9 ± 4.18. The “Body weight of the mice after infection with hRV, day 4” value [2] was 13.23 ± 1.38, the “Lung weight of the mice after infection with hRV, day 4” value [2] was 134.2 ± 3.68 and the “Suppression of the reproduction of the virus in mouse lungs, Δ lg, Day 2 after infection” value [2] was 1.65 ± 0.65 Δ lg. The “Suppression of the reproduction of the virus in mouse lungs, Δ lg, Day 3 after infection” value [2] was 1.9 ± 0.27 Δ lg, the “Suppression of the reproduction of the virus in mouse lungs, Δ lg, Day 4 after infection” value [2] was 2.2 ± 4.68 Δ lg and the “Infectious titer of the virus in lungs, lg TCID50, Day 2 after infection” value [2] was 2.35 ± 0.65 lg TCID50. The “Infectious titer of the virus in lungs, lg TCID50, Day 3 after infection” value [2] was 0.6 ± 0.27 lg TCID50, the “Infectious titer of the virus in lungs, lg TCID50, Day 4 after infection” value [2] was 0 ± 0 lg TCID50 and the “Degree of pulmonary edema” value [3] was 1.95 ± 0.31 score. For the same compound, the mortality at 30 mg/kg [4] was 65%.

In the case of Cn1cnc(CCN2C(=O)CCCC2=O)c1 [Compound 5], the “Degree of pulmonary edema” value [3] is reported as 1.10 ± 0.19 score and the mortality at 30 mg/kg [4] is reported as 45%.

For O=C1CCCC(=O)N1CCc1nccs1 [Compound 6], the “The number” value [1] was 36.5 ± 0.8, the “Macroscopic changes in the mucous membrane of nasal passages: Muculent or mucopurulent catarrh (number of animals)” value [1] was 4 and the “Macroscopic changes in the mucous membrane of nasal passages: Without changes (number of animals)” value [1] was 2. The “Degree of pulmonary edema” value [3] was 0.90 ± 0.22 score.

O=C1CCCC(=O)N1CCc1ccncc1 [Compound 9] was tested, and the “Degree of pulmonary edema” value [3] was 1.00 ± 0.17 score.

With CC1(C)CCC(=O)N(CCc2c[nH]cn2)C1=O [Compound 20] the “Macroscopic changes in the mucous membrane of nasal passages: Muculent or mucopurulent catarrh (number of animals)” value [1] was 4, the “Macroscopic changes in the mucous membrane of nasal passages: Without changes (number of animals)” value [1] was 4 and the mortality at 30 mg/kg [4] was 50%.

For O=C1CCCC(=O)N1CCN1CCCC1 [Compound 23], the inhibition in vivo at 30 mg/kg [5] was 36%, the mortality at 30 mg/kg [5] was 50% and the “Average expectancy life (days), Relative” value [5] was 23.8 days. For the same compound, the “Average expectancy life (days), Vs. control” value [5] was “+13.1 days” and the mortality at 30 mg/kg [4] was 40%.

In the case of O=C1CCCC(=O)N1CCn1ccnc1 [Compound 30], the inhibition in vivo at 30 mg/kg [5] is reported as 18%, the mortality at 30 mg/kg [5] is reported as 60% and the “Average expectancy life (days), Relative” value [5] is reported as 13.1 days. The “Average expectancy life (days), Vs. control” value [5] was “+2.4 days” and the mortality at 30 mg/kg [4] was 50%.

In the case of O=C1CCCC(=O)N1CCc1cn[nH]n1 [Compound 35], the inhibition in vivo at 30 mg/kg [5] is reported as 27%, the mortality at 30 mg/kg [5] is reported as 53.3% and the “Average expectancy life (days), Relative” value [5] is reported as 16.6 days. For the same compound, the “Average expectancy life (days), Vs. control” value [5] was “+5.9 days” and the mortality at 30 mg/kg [4] was 55%.

O=C1CCCC(=O)N1CCc1nnn[nH]1 [Compound 36] was tested, and the inhibition in vivo at 30 mg/kg [5] was 27%, the mortality at 30 mg/kg [5] was 53.3% and the “Average expectancy life (days), Relative” value [5] was 16.7 days. For the same compound, the “Average expectancy life (days), Vs. control” value [5] was “+6.0 days” and the mortality at 30 mg/kg [4] was 60%.

With O=C1CCCC(=O)N1CCC1CCNC1 (stereo not drawn) [Compound 120] the “Degree of pulmonary edema” value [3] was 1.05 ± 0.14 score.

With O=C1CCCC(=O)N1CCC1CCCNC1 (stereo not drawn) [Compound 121] the “Degree of pulmonary edema” value [3] was 0.90 ± 0.21 score.

For O=C1CCCC(=O)N1CCC1CCNCC1 [Compound 123], the “Degree of pulmonary edema” value [3] was 1.30 ± 0.17 score.
